Data reported in patent publication USRE37781E1, “Substituted cyclic carbonyls and derivatives thereof useful as retroviral protease inhibitors” (DuPont Pharmaceuticals Company, priority 1991, dated 2002).
≈ marks a conversion by molar mass, not a printed value. Where “and” joins values, the source holds several entries; their conditions need not be identical. Equal values may be shown once. Read-outs that look alike come from different tables or passages of the source.

What was measured:
[1] = target: single-chain tethered dimer of HIV protease (Human immunodeficiency virus 1, UniProt P04585); assay: biochemical; format: biochemical
Method: HIV Protease Inhibition Assay—HPLC Method
Active protease was prepared as described therein by extraction with 67% acetic acid, dilution 33-fold with water, dialysis against water and then against a “refolding buffer” consisting of 20 mM MES, 1 mM dithiothreitol and 10% glycerol. Protease was stored as a stock preparation at 10 uM in refolding buffer.
Substrate: Peptide of sequence: aminobenzoyl-Ala-Thr-His-Gln-Val-Tyr-Phe(NO2)-Val-Arg-Lys-Ala containing p-nitrophenylalanine, was prepared by solid phase synthesis as previously described Cheng et al., op.cit. Stock solutions of 2 mM substrate were prepared in DMSO.
Inhibitory compounds were dissolved in sufficient DMSO to make 3 mM stock solutions. All further dilutions were prepared in “assay buffer”: 1M NaCl, 50 mM MES, pH 5.5, 1 mM EDTA, 1 mM DTT, […] glycerol.
Enzyme reaction: In a 2 ml screw-cap centrifuge tube were added 50 ul protease (final concentration 0.25 nM) and 0.1 ml inhibitory compound (final concentration […]). After 15 min preincubation at room temperature, the reaction was started with the addition of 0.05 ml substrate (final concentration 5 uM). Incubation was carried out at 30 C. for 1 hr. The reaction was stopped with 1 ml 0.1M ammonium hydroxide.
HPLC measurement of product formation: The product (aminobenzoyl-Ala-Thr-His-Gln-Val-Tyr) was separated from substrate on a Pharmacia MonoQ anion exchange column. The injection volume was 0.2 ml. The mobile phases were: A (20 mM trisHCl, pH 9.0, 0.02% sodium Azide, 10% acetonitrile), B (20 mM tris HCl, pH 9.0, 0.02% sodium azide, 0.5M ammonium formate, 10% acetonitrile). The mobile phases were pumped at 1 ml/min, with a gradient from 0 to 30% B in 5 min, 100% B for 4 min to wash the column, and a re-equilibration for 4 min. The retention time of the product was 3.6 min. Detection with a Shimadzu model RF535 fluorescence monitor was at 330 nm (excitation) and 430 (emission).

HIV-1 (RF) in MT-2 cells = assay: microbe, parasite or virus in culture; format: cell-based
Procedure, shortened: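 HIV-1 laboratory strains (RF, MN, IIIB) grown in H9 cells in RPMI 1640 with 5% FCS; infections in MT-2 cells. Viral RNA quantified by hybridization with biotinylated gag/pol capture probes on streptavidin plates and alkaline phosphatase-conjugated reporter probes; BH10 gag-pol in vitro transcripts serve as RNA standards.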

[2] = Human immunodeficiency virus 1, MT2, HIV RNA assay, HIV-1 infected MT-2 cells, class symbols, read-out: IC90
[3] = HIV protease inhibition, class symbols, read-out: Ki
[4] = HIV RNA assay, HIV-1 infected MT-2 cells, class symbols

C=CCOc1cccc(CN2C(=O)N(Cc3cccc(OCC=C)c3)C(Cc3ccccc3)C(O)C(O)C2Cc2ccccc2)c1 (stereo not shown) [Example 5L]
Ki [1]: < 10 nM
melting point: 170 to 172 °C
IC90 (HIV-1 (RF) in MT-2 cells; [2]): > 100 µg/mL

O=Cc1cccc(CN2C(=O)N(Cc3cccc(C=O)c3)C(Cc3ccccc3)C(O)C(O)C2Cc2ccccc2)c1 (stereo not shown) [Example 5V]
Ki [1]: < 10 nM
melting point: 175 to 176 °C
IC90 (HIV-1 (RF) in MT-2 cells; [2]): < 10 µg/mL

O=C1N(Cc2cccc(Br)c2)C(Cc2ccccc2)C(O)C(O)C(Cc2ccccc2)N1Cc1cccc(Br)c1 (stereo not shown) [Example 6ZE]
Ki [1]: < 10 nM
melting point: 210.7 °C
IC90 (HIV-1 (RF) in MT-2 cells; [2]): < 10 µg/mL

C=CCOc1cccc(CN2C(=O)N(Cc3cccc(O)c3)C(Cc3ccccc3)C(O)C(O)C2Cc2ccccc2)c1 (stereo not shown) [Example 5M]
Ki [1]: < 10 nM
melting point: 78 to 79 °C
IC90 (HIV-1 (RF) in MT-2 cells; [2]): < 10 µg/mL

O=C1N(Cc2ccccc2)C(Cc2ccccc2)C(O)C(O)C(Cc2ccccc2)N1Cc1ccc2ccccc2c1 (stereo not shown) [Example 4M]
Ki [1]: < 10 nM
melting point: 90 to 92 °C
IC90 (HIV-1 (RF) in MT-2 cells; [2]): < 10 µg/mL

O=C1N(Cc2cccnc2)C(Cc2ccccc2)C(O)C(O)C(Cc2ccccc2)N1Cc1ccc2ccccc2c1 (stereo not shown) [Example 5H]
Ki [1]: < 10 nM
melting point: 94 to 96 °C
IC90 (HIV-1 (RF) in MT-2 cells; [2]): < 10 µg/mL

O=C1N(Cc2ccncc2)C(Cc2ccccc2)C(O)C(O)C(Cc2ccccc2)N1Cc1ccc2ccccc2c1 (stereo not shown) [Example 4Z]
Ki [1]: < 10 nM
melting point: 118 to 121 °C
IC90 (HIV-1 (RF) in MT-2 cells; [2]): < 10 µg/mL

CCCCN1C(=O)N(Cc2ccc3ccccc3c2)C(Cc2ccccc2)C(O)C(O)C1Cc1ccccc1 (stereo not shown) [Example 4U]
Ki [1]: < 10 nM
melting point: 78 to 80 °C
IC90 (HIV-1 (RF) in MT-2 cells; [2]): < 10 µg/mL

N#Cc1cccc(CN2C(=O)N(Cc3cccc(C#N)c3)C(Cc3ccccc3)C(O)C(O)C2Cc2ccccc2)c1 (stereo not shown) [Example 4P]
Ki [1]: < 10 nM
melting point: 225 to 227 °C
IC90 (HIV-1 (RF) in MT-2 cells; [2]): < 10 µg/mL

C=CCN1C(=O)NC(Cc2ccccc2)C(O)C(O)C1Cc1ccccc1 (stereo not shown) [Example 5A]
Ki [1]: > 1000 nM
melting point: 180 to 182 °C

O=C1N(Cc2cccc([N+](=O)[O-])c2)C(Cc2ccccc2)C(O)C(O)C(Cc2ccccc2)N1Cc1cccc([N+](=O)[O-])c1 (stereo not shown) [Example 6Z]
Ki [1]: < 10 nM
melting point: 248.3 °C
IC90 (HIV-1 (RF) in MT-2 cells; Human immunodeficiency virus 1, MT2): < 10 µg/mL

C=CCN1C(=O)N(Cc2ccc3ccccc3c2)C(Cc2ccccc2)C(O)C(O)C1Cc1ccccc1 (stereo not shown) [Example 4S]
Ki [1]: < 10 nM
melting point: 72 to 74 °C
IC90 (HIV-1 (RF) in MT-2 cells; [2]): < 10 µg/mL

CCOCCN1C(=O)N(CCOCC)C(Cc2ccccc2)C(O)C(O)C1Cc1ccccc1 (stereo not shown) [Example 3R]
Ki [1]: > 1000 nM
melting point: 148 to 150 °C
IC90 (HIV-1 (RF) in MT-2 cells; [2]): > 100 µg/mL

O=C1NC(Cc2ccccc2)C(O)C(O)C(Cc2ccccc2)N1Cc1ccc(F)cc1 (stereo not shown) [Example 6ZF]
Ki [1]: < 10 nM
melting point: 188.9 °C
IC90 (HIV-1 (RF) in MT-2 cells; [2]): < 10 µg/mL

O=C1N(Cc2c(F)c(F)c(F)c(F)c2F)C(Cc2ccccc2)C(O)C(O)C(Cc2ccccc2)N1Cc1c(F)c(F)c(F)c(F)c1F (stereo not shown) [Example 4J]
Ki [1]: > 1000 nM
melting point: 193 to 195 °C
IC90 (HIV-1 (RF) in MT-2 cells; [2]): < 10 µg/mL

O=C1N(Cc2ccc(F)cc2)C(Cc2ccccc2)C(O)C(O)C(Cc2ccccc2)N1Cc1ccc2ccccc2c1 (stereo not shown) [Example 5Q]
Ki [1]: < 10 nM
melting point: 105 to 107 °C
IC90 (HIV-1 (RF) in MT-2 cells; [2]): < 10 µg/mL

O=C1N(Cc2ccc3ccccc3c2)C(Cc2ccccc2)C(O)C(O)C(Cc2ccccc2)N1Cc1ccccn1 (stereo not shown) [Example 4Y]
Ki [1]: 10 to 1000 nM
melting point: 165 to 166 °C
IC90 (HIV-1 (RF) in MT-2 cells; [2]): < 10 µg/mL

O=C1N(Cc2cc(Cl)cc(Cl)c2)C(Cc2ccccc2)C(O)C(O)C(Cc2ccccc2)N1Cc1cc(Cl)cc(Cl)c1 (stereo not shown) [Example 6ZJ]
Ki [1]: 10 to 1000 nM
melting point: 231.1 °C
IC90 (HIV-1 (RF) in MT-2 cells; [2]): 10 to 100 µg/mL (≈ 15.5 to 155 µM)

O=C1N(Cc2cccc(C=NO)c2)C(Cc2ccccc2)C(O)C(O)C(Cc2ccccc2)N1Cc1cccc(C=NO)c1 (stereo not shown) [Example 6C]
Ki [1]: < 10 nM
melting point: 185 to 189 °C
IC90 (HIV-1 (RF) in MT-2 cells; [2]): < 10 µg/mL

O=C1N(Cc2ccc(OCc3ccccc3)cc2)C(Cc2ccccc2)C(O)C(O)C(Cc2ccccc2)N1Cc1ccc(OCc2ccccc2)cc1 (stereo not shown) [Example 5P]
Ki [1]: > 1000 nM
melting point: 80 to 81 °C
IC90 (HIV-1 (RF) in MT-2 cells; [2]): > 100 µg/mL

O=C1N(Cc2ccc3ccccc3c2)C(Cc2ccccc2)C(O)C(O)C(Cc2ccccc2)N1CC1CCCC1 (stereo not shown) [Example 4L]
Ki [1]: < 10 nM
melting point: 89 to 92 °C
IC90 (HIV-1 (RF) in MT-2 cells; [2]): < 10 µg/mL

O=C1N(Cc2cccc(CO)c2)C(Cc2ccccc2)C(O)C(O)C(Cc2ccccc2)N1Cc1cccc(CO)c1 (stereo not shown) [Example 5S]
Ki [1]: < 10 nM
melting point: 94 to 95 °C
IC90 (HIV-1 (RF) in MT-2 cells; [2]): < 10 µg/mL

N#Cc1ccc(CN2C(=O)N(Cc3ccc(C#N)cc3)C(Cc3ccccc3)C(O)C(O)C2Cc2ccccc2)cc1 (stereo not shown) [Example 5W]
Ki [1]: < 10 nM
melting point: 140 to 143 °C
IC90 (HIV-1 (RF) in MT-2 cells; [2]): < 10 µg/mL

O=C1N(Cc2cccc(OCc3ccccc3)c2)C(Cc2ccccc2)C(O)C(O)C(Cc2ccccc2)N1Cc1cccc(OCc2ccccc2)c1 (stereo not shown) [Example 5F]
Ki [1]: 10 to 1000 nM
melting point: 165 to 166 °C

O=C1N(Cc2cc(F)cc(F)c2)C(Cc2ccccc2)C(O)C(O)C(Cc2ccccc2)N1Cc1cc(F)cc(F)c1 (stereo not shown) [Example 6ZC]
Ki [1]: 10 to 1000 nM
melting point: 167.9 °C
IC90 (HIV-1 (RF) in MT-2 cells; [2]): 10 to 100 µg/mL (≈ 17.3 to 173 µM)

O=C1N(Cc2ccc(-c3ccccc3)cc2)C(Cc2ccccc2)C(O)C(O)C(Cc2ccccc2)N1Cc1ccc(-c2ccccc2)cc1 (stereo not shown) [Example 4R]
Ki [1]: 10 to 1000 nM
melting point: 109 to 110 °C

O=C1N(Cc2ccccn2)C(Cc2ccccc2)C(O)C(O)C(Cc2ccccc2)N1CC1CC1 (stereo not shown) [Example 4N]
Ki [1, 3]: < 10 nM
IC90 (HIV-1 (RF) in MT-2 cells; [4]): +++ (+++=<10 μg/mL)

O=C1c2ccccc2C(O)C(O)c2ccccc21 (stereo not shown) [Example 26A, 5H-dibenzo [A,D] cyclohepten-5-one-10,11-dihydro-10, 11-diol]
Ki [1]: > 1000 nM
melting point: 107.5 to 108 °C and 107.5 to 107.9 °C

O=C1N(CC=Cc2ccccc2)C(Cc2ccccc2)C(O)C(O)C(Cc2ccccc2)N1CC1CC1 (stereo not shown) [Example 4I]
Ki [1]: < 10 nM
IC90 (HIV-1 (RF) in MT-2 cells; [2]): < 10 µg/mL

O=C1N(Cc2cn(Cc3ccccc3)cn2)C(Cc2ccccc2)C(O)C(O)C(Cc2ccccc2)N1Cc1cn(Cc2ccccc2)cn1 (stereo not shown) [Example 6ZP]
Ki [1, 3]: > 1000 nM
IC90 (HIV-1 (RF) in MT-2 cells; [4]): ++ (++=10 to 100 μg/mL)

COc1cccc(CN2C(=O)N(Cc3cccc(OC)c3)C(Cc3ccccc3)C(O)C(O)C2Cc2ccccc2)c1 (stereo not shown) [Example 6Q]
Ki [1]: < 10 nM
IC90 (HIV-1 (RF) in MT-2 cells; [2]): < 10 µg/mL
